Here are results for five compounds from PMC9145945, “Machine-Learning Guided Discovery of Bioactive Inhibitors of PD1-PDL1 Interaction” (Pharmaceuticals, 2022).

Each structure is given as a SMILES string. Several values for one entry are separate records, joined by “and”; a condition that tells them apart may be missing. Equal entries are not always repeated.

Test [1] concerns the target T1, human PD1-PDL1 interaction (Homo sapiens, UniProt Q9NZQ7).
T1 construct: purchased Perkin Elmer
The note with it: Table S1; ref BMS Patent 1: WO2015034820A1; cited from earlier work.

The next test addresses protein kinase D (PKD). On the set-up: method as in PMID 20497126. The note with it: VEGF-treated endothelial cells; read-out: IC50 against all three PKD isoforms; cited from earlier work.
The target in test [2] is T1, human PD1-PDL1 interaction. The test is described as follows: HTRF human PD1-PDL1 binding assay. The conditions noted are these: for IC50: dose–response 0–100 µM. An excerpt:
The homogeneous time-resolved fluorescence (HTRF) binding assay was used to test these top 20 molecules for their potential blockade of human PD1-PDL1 interaction. We have previously established the utility of the HTRF assay over similar homogenous assay like AlphaLISA, with the latter proving to be more promiscuous in identifying potential false positives against PD1-PDL1 target.
The potential activity of our virtual hits in inhibiting PD1-PDL1 interaction was investigated using the homogeneous time-resolved fluorescence (HTRF) binding assay from Perkin Elmer. The assay was carried out according to the manufacturer’s instructions using the HTRF protocol in BioTek Synergy Neo^TM microplate reader. […] The assay mixture with only PDL1 protein, but not PD1 protein served as a negative control denoting 0% PD1-PDL1 interaction. […] The dose–response data were analyzed using GraphPad Prism to determine IC50 values using nonlinear regression variable slope models.
In general terms: TR-FRET usually uses a lanthanide donor and a delayed reading to cut background.

The test system of the next test is PD1-PDL1 interaction. On the set-up: method as in PMID 34117723. The conditions noted are these: read-out: IC50, PD1-PDL1 inhibitor; cited from earlier work.
Test [3] deals with ceramide synthase 1 (CerS1). The conditions noted are these: mice fed with high-fat diet; cited from earlier work.
Setting [4] is: 25 µM single-dose test concentration.

T1 sequence (Q9NZQ7 19-238 limits assumed): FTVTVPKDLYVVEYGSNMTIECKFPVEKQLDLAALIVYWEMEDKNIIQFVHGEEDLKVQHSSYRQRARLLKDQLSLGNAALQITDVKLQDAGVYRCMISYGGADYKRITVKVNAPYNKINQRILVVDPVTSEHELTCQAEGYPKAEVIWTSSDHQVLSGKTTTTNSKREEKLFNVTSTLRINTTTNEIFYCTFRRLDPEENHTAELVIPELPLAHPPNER

Take `COc1cc(OCc2cccc(-c3ccccc3)c2C)cc(OC)c1CN1CCCC[C@H]1C(=O)O` [Compound 1--1]: the “Activity (classification used for ML modeling)” value in test [1] is reported as “ACTIVE”.
The term IC50 denotes the concentration at which inhibition is half-maximal. As for `CCOc1ccc2cc(-c3cc(-c4cccc(C(=O)NCCN(C)C)c4)cnc3N)ccc2c1` [Compound 1], the IC50 was 0.001 to 0.002 µM on protein kinase D (PKD); ~22 µM and ~22.4 µM in test [2]; 22.4 µM in test [2] (listed as CRT5). For the same compound, in test [2] (setting [4]), the “% PD1-PDL1 Inhibition” value came out at 50.9 ± 1.3%.
Usually inhibition stands for the change of the read-out against control, counted positive when it falls. As to `Cc1c(COc2ccc(CN3CCCCC3C(=O)O)cc2Br)cccc1-c1ccccc1` (centres unmarked) [Compound 18], the inhibition at 25 µM in test [2] (setting [4]) is -4.4 ± 1.2%.
On to `Cc1cc(/C=C/c2ccc3cc(N(C)C)ccc3[n+]2C)c(C)n1-c1ccccc1` [Pyrvinium], for which, in the test on PD1-PDL1 interaction, the IC50 was about 29.7 µM.
With `C[C@@](N)(CO)CCc1ccc(OCc2ccc(Cl)c(Cl)c2)cc1` [Compound 2], the “fatty acid oxidation in skeletal muscles” value in test [3] is listed as “increased fatty acid oxidation”. Further, in test [2] (setting [4]), the “% PD1-PDL1 Inhibition” value amounted to 41.4 ± 0.9%. Moreover, the IC50 in test [2] is about 33.6 µM; in test [2] (listed as P053) it was 33.6 µM.
